# Data: publication PMC11070402, “New antiproliferative 3-substituted oxindoles inhibiting EGFR/VEGFR-2 and tubulin polymerization” (Molecular Diversity, 2023)
# Test system: MOLT-4
# Assay: NCI one-dose assay, MOLT-4
# Assay type: cell-based
# Details: Homo sapiens; MOLT-4 (Leukemia), 10 uM single dose; read-out: Growth inhibition %
# Protocol: (§1) All novel scaffolds 6a–j were carefully selected by the National Cancer Institute (NCI), Bethesda, USA, to elucidate their cytotoxic activity versus 60 human cancer cell lines at 10 µM as a single-dose concentration after a 48 h incubation period.
# (§2) National Cancer Institution selected all the synthesized 6a–j (NCI), Bethesda, USA, for in vitro one-dose antitumor assay. The methodology protocol for the NCI anticancer screening was reported in detail elsewhere (http://www.dtp.nci.nih.gov). The anticancer assay was performed in full NCI 60 cell lines extracted from nine tumor cell lines, including leukemia, melanoma, lung, colon, CNS, ovarian, renal, prostate, and breast cancer cell lines.
row,SMILES,inhibition at 10 µM
1,"COc1ccc(C(=O)COc2ccc(C=C3C(=O)Nc4ccc(Cl)cc43)cc2)cc1 [Compound 6i, 5-Chloro-3-{4-[2-(4-methoxyphenyl)-2-oxoethoxy]benzylidene}indolin-2-one]",21.8%

# Test system: 60 human cancer cell lines
# Assay: NCI one-dose assay against sixty NCI cancer cell lines
# Assay type: cell-based
# Details: BT-549 (Breast Cancer), 10 uM single dose, read-out: Growth inhibition %
# Protocol: as §1, §2
row,SMILES,inhibition at 10 µM
1,"COc1ccc(C(=O)COc2ccc(C=C3C(=O)Nc4ccc(Cl)cc43)cc2)cc1 [Compound 6i, 5-Chloro-3-{4-[2-(4-methoxyphenyl)-2-oxoethoxy]benzylidene}indolin-2-one]",11.7%

# Same assay, conditions: CAKI-1 (Renal Cancer), 10 uM single dose, read-out: Growth inhibition %
row,SMILES,inhibition at 10 µM
1,"COc1ccc(C(=O)COc2ccc(C=C3C(=O)Nc4ccc(Cl)cc43)cc2)cc1 [Compound 6i, 5-Chloro-3-{4-[2-(4-methoxyphenyl)-2-oxoethoxy]benzylidene}indolin-2-one]",22.7%

# Same assay, conditions: CCRF-CEM (Leukemia), 10 uM single dose, read-out: Growth inhibition %
row,SMILES,inhibition at 10 µM
1,"COc1ccc(C(=O)COc2ccc(C=C3C(=O)Nc4ccc(Cl)cc43)cc2)cc1 [Compound 6i, 5-Chloro-3-{4-[2-(4-methoxyphenyl)-2-oxoethoxy]benzylidene}indolin-2-one]",12.5%

# Same assay, conditions: HCT-116 (Colon Cancer), 10 uM single dose, read-out: Growth inhibition %
row,SMILES,inhibition at 10 µM
1,"COc1ccc(C(=O)COc2ccc(C=C3C(=O)Nc4ccc(Cl)cc43)cc2)cc1 [Compound 6i, 5-Chloro-3-{4-[2-(4-methoxyphenyl)-2-oxoethoxy]benzylidene}indolin-2-one]",10.4%

# Same assay, conditions: NCI-H226 (Non-Small Cell Lung Cancer), 10 uM single dose, read-out: Growth inhibition %
row,SMILES,inhibition at 10 µM
1,"COc1ccc(C(=O)COc2ccc(C=C3C(=O)Nc4ccc(Cl)cc43)cc2)cc1 [Compound 6i, 5-Chloro-3-{4-[2-(4-methoxyphenyl)-2-oxoethoxy]benzylidene}indolin-2-one]",17.4%

# Same assay, conditions: NCI-H522 (Non-Small Cell Lung Cancer), 10 uM single dose, read-out: Growth inhibition %
row,SMILES,inhibition at 10 µM
1,"COc1ccc(C(=O)COc2ccc(C=C3C(=O)Nc4ccc(Cl)cc43)cc2)cc1 [Compound 6i, 5-Chloro-3-{4-[2-(4-methoxyphenyl)-2-oxoethoxy]benzylidene}indolin-2-one]",16.1%

# Same assay, conditions: OVCAR-3 (Ovarian Cancer), 10 uM single dose, read-out: Growth inhibition %
row,SMILES,inhibition at 10 µM
1,"COc1ccc(C(=O)COc2ccc(C=C3C(=O)Nc4ccc(Cl)cc43)cc2)cc1 [Compound 6i, 5-Chloro-3-{4-[2-(4-methoxyphenyl)-2-oxoethoxy]benzylidene}indolin-2-one]",10.8%

# Same assay, conditions: OVCAR-8 (Ovarian Cancer), 10 uM single dose, read-out: Growth inhibition %
row,SMILES,inhibition at 10 µM
1,"COc1ccc(C(=O)COc2ccc(C=C3C(=O)Nc4ccc(Cl)cc43)cc2)cc1 [Compound 6i, 5-Chloro-3-{4-[2-(4-methoxyphenyl)-2-oxoethoxy]benzylidene}indolin-2-one]",10.6%

# Same assay, conditions: PC-3 (Prostate Cancer), 10 uM single dose, read-out: Growth inhibition %
row,SMILES,inhibition at 10 µM
1,"COc1ccc(C(=O)COc2ccc(C=C3C(=O)Nc4ccc(Cl)cc43)cc2)cc1 [Compound 6i, 5-Chloro-3-{4-[2-(4-methoxyphenyl)-2-oxoethoxy]benzylidene}indolin-2-one]",29.6%

# Same assay, conditions: RPMI-8226 (Leukemia), 10 uM single dose, read-out: Growth inhibition %
row,SMILES,inhibition at 10 µM
1,"COc1ccc(C(=O)COc2ccc(C=C3C(=O)Nc4ccc(Cl)cc43)cc2)cc1 [Compound 6i, 5-Chloro-3-{4-[2-(4-methoxyphenyl)-2-oxoethoxy]benzylidene}indolin-2-one]",19.9%

# Same assay, conditions: SK-MEL-2 (Melanoma), 10 uM single dose, read-out: Growth inhibition %
row,SMILES,inhibition at 10 µM
1,"COc1ccc(C(=O)COc2ccc(C=C3C(=O)Nc4ccc(Cl)cc43)cc2)cc1 [Compound 6i, 5-Chloro-3-{4-[2-(4-methoxyphenyl)-2-oxoethoxy]benzylidene}indolin-2-one]",22.2%

# Same assay, conditions: UACC-62 (Melanoma), 10 uM single dose, read-out: Growth inhibition %
row,SMILES,inhibition at 10 µM
1,"COc1ccc(C(=O)COc2ccc(C=C3C(=O)Nc4ccc(Cl)cc43)cc2)cc1 [Compound 6i, 5-Chloro-3-{4-[2-(4-methoxyphenyl)-2-oxoethoxy]benzylidene}indolin-2-one]",20.1%

# Test system: NCI/ADR-RES (ovarian cancer cell line)
# Assay: NCI one-dose assay, NCI/ADR-RES
# Assay type: cell-based
# Details: Homo sapiens; NCI/ADR-RES (Ovarian Cancer), 10 uM single dose; read-out: Growth inhibition %
# Protocol: as §1, §2
row,SMILES,inhibition at 10 µM
1,"COc1ccc(C(=O)COc2ccc(C=C3C(=O)Nc4ccc(Cl)cc43)cc2)cc1 [Compound 6i, 5-Chloro-3-{4-[2-(4-methoxyphenyl)-2-oxoethoxy]benzylidene}indolin-2-one]",13.1%

# Test system: K-562
# Assay: NCI one-dose assay, K-562
# Assay type: cell-based
# Details: Homo sapiens, K562; K-562 (Leukemia), 10 uM single dose; read-out: Growth inhibition %
# Protocol: as §1, §2
row,SMILES,inhibition at 10 µM
1,"COc1ccc(C(=O)COc2ccc(C=C3C(=O)Nc4ccc(Cl)cc43)cc2)cc1 [Compound 6i, 5-Chloro-3-{4-[2-(4-methoxyphenyl)-2-oxoethoxy]benzylidene}indolin-2-one]",25%

# Test system: LOX IMVI
# Assay: NCI one-dose assay, LOX IMVI
# Assay type: cell-based
# Details: Homo sapiens; LOX IMVI (Melanoma), 10 uM single dose; read-out: Growth inhibition %
# Protocol: as §1, §2
row,SMILES,inhibition at 10 µM
1,"COc1ccc(C(=O)COc2ccc(C=C3C(=O)Nc4ccc(Cl)cc43)cc2)cc1 [Compound 6i, 5-Chloro-3-{4-[2-(4-methoxyphenyl)-2-oxoethoxy]benzylidene}indolin-2-one]",12.3%

# Test system: MCF-7
# Assay: NCI one-dose assay, MCF-7
# Assay type: cell-based, human
# Details: Homo sapiens, MCF7, MCF7 (Breast Cancer), 10 uM single dose; read-out: Growth inhibition %
# Protocol: as §1, §2
row,SMILES,inhibition at 10 µM
1,"COc1ccc(C(=O)COc2ccc(C=C3C(=O)Nc4ccc(Cl)cc43)cc2)cc1 [Compound 6i, 5-Chloro-3-{4-[2-(4-methoxyphenyl)-2-oxoethoxy]benzylidene}indolin-2-one]",22.1%

# Test system: SR
# Assay: NCI one-dose assay, SR
# Assay type: cell-based
# Details: Homo sapiens; SR (Leukemia), 10 uM single dose; read-out: Growth inhibition %
# Protocol: as §1, §2
row,SMILES,inhibition at 10 µM
1,"COc1ccc(C(=O)COc2ccc(C=C3C(=O)Nc4ccc(Cl)cc43)cc2)cc1 [Compound 6i, 5-Chloro-3-{4-[2-(4-methoxyphenyl)-2-oxoethoxy]benzylidene}indolin-2-one]",21.2%

# Test system: UO-31
# Assay: NCI one-dose assay, UO-31
# Assay type: cell-based
# Details: Homo sapiens; UO-31 (Renal Cancer), 10 uM single dose; read-out: Growth inhibition %
# Protocol: as §1, §2
row,SMILES,inhibition at 10 µM
1,"COc1ccc(C(=O)COc2ccc(C=C3C(=O)Nc4ccc(Cl)cc43)cc2)cc1 [Compound 6i, 5-Chloro-3-{4-[2-(4-methoxyphenyl)-2-oxoethoxy]benzylidene}indolin-2-one]",38.1%

# Test system: not given
# Assay: not given
# Details: not given
row,SMILES,melting point
1,"COc1ccc(C(=O)COc2ccc(C=C3C(=O)Nc4ccc(Cl)cc43)cc2)cc1 [Compound 6i, 5-Chloro-3-{4-[2-(4-methoxyphenyl)-2-oxoethoxy]benzylidene}indolin-2-one]",183 to 185 °C

# Test system: HOP-92 (non-small cell lung cancer cell line)
# Assay: NCI one-dose assay, HOP-92
# Assay type: cell-based
# Details: Homo sapiens; HOP-92; 10 µM single dose, 48 h incubation; read-out: cell growth inhibition % (GI %)
# Protocol: as §1, §2
row,SMILES,inhibition at 10 µM
1,"COc1ccc(C(=O)COc2ccc(C=C3C(=O)Nc4ccc(Cl)cc43)cc2)cc1 [Compound 6i, 5-Chloro-3-{4-[2-(4-methoxyphenyl)-2-oxoethoxy]benzylidene}indolin-2-one]",62.1%

# Test system: T-47D
# Assay: NCI one-dose assay, T-47D
# Assay type: cell-based
# Details: Homo sapiens, T47D; T-47D (Breast Cancer), 10 uM single dose; read-out: Growth inhibition %
# Protocol: as §1, §2
row,SMILES,inhibition at 10 µM
1,"COc1ccc(C(=O)COc2ccc(C=C3C(=O)Nc4ccc(Cl)cc43)cc2)cc1 [Compound 6i, 5-Chloro-3-{4-[2-(4-methoxyphenyl)-2-oxoethoxy]benzylidene}indolin-2-one]",23.9%

# Test system: SNB-75 cells (CNS cancer cell line)
# Assay: NCI one-dose assay, SNB-75
# Assay type: cell-based
# Details: Homo sapiens; SNB-75 (CNS Cancer), 10 uM single dose; read-out: Growth inhibition %
# Protocol: as §1, §2
row,SMILES,inhibition at 10 µM
1,"COc1ccc(C(=O)COc2ccc(C=C3C(=O)Nc4ccc(Cl)cc43)cc2)cc1 [Compound 6i, 5-Chloro-3-{4-[2-(4-methoxyphenyl)-2-oxoethoxy]benzylidene}indolin-2-one]",37.6%
